Source: ChEMBL document CHEMBL1158360, “Large ring 1,3-bridged 2-azetidinones: experimental and theoretical studies” (Eur J Med Chem, 2009)
Active and inactive are the calls of the source. No cut-off for these calls is given here.

Assays:
[1] = biological target: Chymotrypsin-like elastase family member 1 (Sus scrofa) (UniProt P00772); test: Reversible inhibition of pig pancreatic elastase at 1 to 100 uM preincubated for 40 mins before addition of N-succinyl-L-alanyl-Lalanyl- L-alanyl-p-nitroanilide by incubation/dilution method
[2] = biological target: Chymotrypsin-like elastase family member 1 (Sus scrofa) (UniProt P00772); test: Reversible inhibition of pig pancreatic elastase at 1 to 100 uM preincubated for 20 mins before addition of N-succinyl-L-alanyl-Lalanyl- L-alanyl-p-nitroanilide by incubation/dilution method
[3] = Chemical stability assessed as hydrolysis half life; type: physicochemical
Enterococcus faecium = test: Residual activity of Enterococcus faecium PBP5fm at 100 uM after 16 hrs
[4] = biological target: T1, Penicillin-binding protein 2x (Streptococcus pneumoniae serotype 4 (strain ATCC BAA-334 / TIGR4)) (UniProt P14677); test: Residual activity of Streptococcus pneumoniae 5204 PBP2x at 100 uM after 16 hrs
T1 sequence (whole entry): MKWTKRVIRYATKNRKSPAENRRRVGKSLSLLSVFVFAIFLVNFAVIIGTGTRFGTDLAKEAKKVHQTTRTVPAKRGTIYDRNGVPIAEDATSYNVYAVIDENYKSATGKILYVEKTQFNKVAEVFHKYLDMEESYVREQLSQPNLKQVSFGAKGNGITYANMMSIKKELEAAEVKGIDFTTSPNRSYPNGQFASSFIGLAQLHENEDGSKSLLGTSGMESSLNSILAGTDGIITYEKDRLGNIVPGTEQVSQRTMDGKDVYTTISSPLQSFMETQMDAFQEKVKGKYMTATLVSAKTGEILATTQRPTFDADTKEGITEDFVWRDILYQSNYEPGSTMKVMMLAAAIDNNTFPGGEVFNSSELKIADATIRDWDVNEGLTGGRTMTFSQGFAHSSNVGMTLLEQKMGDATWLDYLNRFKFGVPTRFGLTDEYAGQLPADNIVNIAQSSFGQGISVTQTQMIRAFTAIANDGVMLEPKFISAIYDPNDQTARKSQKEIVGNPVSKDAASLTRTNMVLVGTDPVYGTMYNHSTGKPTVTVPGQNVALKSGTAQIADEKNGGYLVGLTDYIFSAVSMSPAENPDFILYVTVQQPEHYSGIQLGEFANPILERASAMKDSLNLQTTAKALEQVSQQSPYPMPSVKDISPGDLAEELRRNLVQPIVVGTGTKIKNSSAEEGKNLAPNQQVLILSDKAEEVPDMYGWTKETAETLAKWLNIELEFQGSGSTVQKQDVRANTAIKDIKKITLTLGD

[5] = Inhibition of beta-lactamase TEM1 at 100 uM
[6] = biological target: Chymotrypsin-like elastase family member 1 (Sus scrofa) (UniProt P00772); test: Inhibition of pig pancreatic elastase assessed as formation of p-nitroaniline at 1 uM
[7] = biological target: D-alanyl-D-alanine carboxypeptidase (Actinomadura sp. R39) (UniProt P39045); test: Residual activity of Actinomadura R39 DD-peptidase at 100 uM after 16 hrs
[8] = biological target: T2, MecA (Staphylococcus aureus) (UniProt Q7DHH4); test: Inhibition of methicillin-resistant Staphylococcus aureus ATCC […] PBP2a assessed as residual activity at 100 uM after 16 hrs; settings: values are per cent of control
T2 sequence (whole entry): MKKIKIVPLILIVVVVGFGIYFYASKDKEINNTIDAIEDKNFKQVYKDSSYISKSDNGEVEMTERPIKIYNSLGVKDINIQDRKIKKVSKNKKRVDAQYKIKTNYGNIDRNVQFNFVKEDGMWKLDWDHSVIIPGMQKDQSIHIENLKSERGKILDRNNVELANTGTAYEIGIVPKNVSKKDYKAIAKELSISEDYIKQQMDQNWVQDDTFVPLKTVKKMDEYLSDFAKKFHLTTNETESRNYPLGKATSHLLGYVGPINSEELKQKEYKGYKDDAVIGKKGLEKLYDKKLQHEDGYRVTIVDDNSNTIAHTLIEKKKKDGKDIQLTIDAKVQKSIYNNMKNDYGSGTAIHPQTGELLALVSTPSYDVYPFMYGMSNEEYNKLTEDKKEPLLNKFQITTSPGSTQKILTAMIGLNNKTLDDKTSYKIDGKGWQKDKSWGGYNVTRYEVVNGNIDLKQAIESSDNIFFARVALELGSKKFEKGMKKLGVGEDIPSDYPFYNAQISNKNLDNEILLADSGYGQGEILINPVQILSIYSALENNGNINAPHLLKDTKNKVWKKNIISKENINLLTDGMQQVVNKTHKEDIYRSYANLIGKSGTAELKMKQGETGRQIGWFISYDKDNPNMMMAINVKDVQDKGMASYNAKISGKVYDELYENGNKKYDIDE

[9] = biological target: Chymotrypsin-like elastase family member 1 (Sus scrofa) (UniProt P00772); test: Reversible inhibition of pig pancreatic elastase at 1 to 100 uM preincubated for 60 mins before addition of N-succinyl-L-alanyl-Lalanyl- L-alanyl-p-nitroanilide by incubation/dilution method
[10] = biological target: Chymotrypsin-like elastase family member 1 (Sus scrofa) (UniProt P00772); test: Inhibition of pig pancreatic elastase assessed as formation of p-nitroaniline at 100 uM

Chymotrypsin-like elastase family member 1 (Sus scrofa), sequence (P00772 whole entry): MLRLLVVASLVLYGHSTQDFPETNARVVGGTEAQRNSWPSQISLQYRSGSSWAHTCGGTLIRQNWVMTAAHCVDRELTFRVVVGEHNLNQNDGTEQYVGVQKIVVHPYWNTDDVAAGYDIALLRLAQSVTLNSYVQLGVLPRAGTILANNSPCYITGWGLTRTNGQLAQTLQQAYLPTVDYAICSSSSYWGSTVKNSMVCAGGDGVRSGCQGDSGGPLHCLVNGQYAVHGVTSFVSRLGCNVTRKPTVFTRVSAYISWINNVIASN

Compound	inhibition [1]	inhibition [2]	half-life [3] [h]	residual activity (Enterococcus faecium) [%]	residual activity [4] [%]	inhibition [5]	inhibition [6]	residual activity [7] [%]	residual activity [8] [%]	inhibition [9]	inhibition [10]
C=CCCC(=O)O[C@H](C)[C@H]1C(=O)N(C(=O)CCC=C)[C@@H]1OC(C)=O	Active	Active	16	84	93	inactive	Active	14	66	Active	
CC(=O)O[C@@H]1[C@@H]2C(=O)N1C(=O)CCCCCCC(=O)O[C@@H]2C			4	113	99	inactive		113	94		inactive
CC1(C)S[C@@H]2[C@H](NC(=O)Cc3ccccc3)C(=O)N2[C@H]1C(=O)O				10	< 5				13		
CC(=O)O[C@@H]1[C@@H]2C(=O)N1C(=O)CC/C=C/CCC(=O)O[C@@H]2C			6	104	116	inactive		96	86		inactive
